Activity calls are given as the source filed them. No cut-off for these calls is given here.
How the values were obtained:
[1] = molecular target: Programmed cell death protein 1/Programmed cell death 1 ligand 1 (Homo sapiens, UniProt Q15116+Q9NZQ7); assay: Inhibition of human PD-1/PD-L1 interaction assessed as disruption of PD-1/PD-L1 complex incubated for 2 hrs by Tag-1 Eu3+ and anti-Tag2-XL665 based HTRF assay; type: protein-complex assay
Mus musculus [2] = assay: Toxicity in C57BL6 mouse allografted with mouse lewis lung carcinoma cells assessed as reduction body weight at 5 mg/kg, ig for 21 days; type: organism-based; settings: in vivo, po, 504 h, time 21 day
Mus musculus [3] = assay: Upregulation of IFNgamma protein expression in C57BL6 mouse serum allografted with mouse lewis lung carcinoma cells at 5 mg/kg, ig for 21 days by ELISA; type: functional, organism-based; settings: time 21.0 day
[4] = Anti-tumor activity against mouse lewis lung carcinoma cells allografted in C57BL6 mouse assessed as reduction in tumor growth at 5 mg/kg, ig for 21 days relative to control; type: functional; settings: po, 504 h, time 21 day, read-out: TGI

Chain of Programmed cell death protein 1/Programmed cell death 1 ligand 1 (Q15116 whole entry): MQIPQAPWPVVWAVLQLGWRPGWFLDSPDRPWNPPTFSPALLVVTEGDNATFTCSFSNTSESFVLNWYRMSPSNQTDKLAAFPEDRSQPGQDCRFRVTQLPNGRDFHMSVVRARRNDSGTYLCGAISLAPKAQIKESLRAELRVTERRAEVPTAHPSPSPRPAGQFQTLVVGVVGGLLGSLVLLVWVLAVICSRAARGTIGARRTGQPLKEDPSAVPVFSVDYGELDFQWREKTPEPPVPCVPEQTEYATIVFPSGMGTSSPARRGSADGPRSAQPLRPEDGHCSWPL
Chain of Programmed cell death protein 1/Programmed cell death 1 ligand 1 (Q9NZQ7 whole entry): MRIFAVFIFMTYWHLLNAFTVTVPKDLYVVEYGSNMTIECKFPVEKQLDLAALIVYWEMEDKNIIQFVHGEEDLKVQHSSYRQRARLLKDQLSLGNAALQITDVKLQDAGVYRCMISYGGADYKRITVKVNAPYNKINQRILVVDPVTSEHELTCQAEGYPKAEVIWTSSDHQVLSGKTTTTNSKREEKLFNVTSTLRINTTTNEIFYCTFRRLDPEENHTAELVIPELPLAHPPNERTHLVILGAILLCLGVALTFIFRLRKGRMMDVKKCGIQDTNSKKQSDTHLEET

SMILES | IC50 [1] | also measured
CSCC[C@H](NCc1ccc(OCc2cccc(-c3ccccc3)c2C)c([N+](=O)[O-])c1)C(=O)O | 17.8 nM | 
Cc1c(COc2cc(OCc3cccc(C#N)c3)c(CNCCO)cc2[N+](=O)[O-])cccc1-c1ccccc1 | 3.59 nM | 
Cc1c(COc2ccc(CNCCO)cc2[N+](=O)[O-])cccc1-c1ccccc1 | 11.8 nM | 
Cc1c(COc2ccc(CNCCC(=O)O)cc2[N+](=O)[O-])cccc1-c1ccccc1 | 39.5 nM | 
Cc1c(COc2ccc(CN[C@@H](CO)C(=O)O)cc2[N+](=O)[O-])cccc1-c1ccccc1 | 27.7 nM | 
Cc1c(COc2ccc(CN3CCCC[C@H]3C(=O)N[C@@H](CO)C(=O)O)cc2[N+](=O)[O-])cccc1-c1ccccc1 | 12.4 nM | 
Cc1c(COc2ccc(CN3CCCC[C@H]3C(=O)N[C@H](C(=O)O)[C@@H](C)O)cc2[N+](=O)[O-])cccc1-c1ccccc1 | 26.7 nM | 
Cc1c(COc2cc(OCc3cccc(C#N)c3)c(CNC(CO)CO)cc2[N+](=O)[O-])cccc1-c1ccccc1 | 7.8 nM | 
Cc1c(COc2cc(OCc3cccc(C#N)c3)c(CN3CCCC[C@H]3C(=O)NCC(C)(C)O)cc2[N+](=O)[O-])cccc1-c1ccccc1 | 4.77 nM | 
Cc1c(COc2ccc(CN3CCC[C@H]3C(=O)NC(C)(CO)CO)cc2[N+](=O)[O-])cccc1-c1ccccc1 | 49.4 nM | 
Cc1c(COc2cc(OCc3cccnc3)c(CN[C@H](C(=O)O)[C@@H](C)O)cc2[N+](=O)[O-])cccc1-c1ccccc1 | 15.5 nM | 
Cc1c(COc2ccc(CN(C)CC(=O)O)cc2[N+](=O)[O-])cccc1-c1ccccc1 | 20.9 nM | 
Cc1c(COc2ccc(CN(CCO)CCO)cc2[N+](=O)[O-])cccc1-c1ccccc1 | 21.4 nM | 
Cc1c(COc2ccc(CNCc3ccoc3)cc2[N+](=O)[O-])cccc1-c1ccccc1 | 87.4 nM | 
Cc1c(COc2cc(OCc3cccc(C#N)c3)c(CN3CCCC[C@H]3C(=O)N[C@@H](CO)C(=O)O)cc2[N+](=O)[O-])cccc1-c1ccccc1 | 8.01 nM | 
Cc1c(COc2ccc(CN3CCC[C@H]3C(=O)N[C@H](C(=O)O)[C@@H](C)O)cc2[N+](=O)[O-])cccc1-c1ccccc1 | 55.6 nM | 
Cc1c(COc2cc(OCc3cccnc3)c(CN3CCCC[C@H]3C(=O)O)cc2[N+](=O)[O-])cccc1-c1ccccc1 | 8.75 nM | 
Cc1c(COc2ccc(CNCCCNC(CO)CO)cc2[N+](=O)[O-])cccc1-c1ccccc1 | 28.7 nM | 
Cc1c(COc2ccc(CN[C@@H](CO)C(=O)O)c(OCc3cccc(C#N)c3)c2)cccc1-c1ccccc1 | 30.2 nM | Activity (Mus musculus [2]): Non-Toxic; Activity (Mus musculus [3]): Active; inhibition in vivo at 5 mg/kg [4]: 17.8%
Cc1c(COc2cc(OCc3ccnc(C#N)c3)c(CN[C@@H](CO)C(=O)O)cc2[N+](=O)[O-])cccc1-c1ccccc1 | 9.33 nM | 
Cc1c(COc2ccc(CN3CCCC[C@H]3C(=O)NCC(C)(C)O)cc2[N+](=O)[O-])cccc1-c1ccccc1 | 12.1 nM | 
Cc1c(COc2cc(OCc3ccnc(C#N)c3)c(CN3CCCC[C@H]3C(=O)O)cc2[N+](=O)[O-])cccc1-c1ccccc1 | 10.2 nM | 
CC(=O)NCCNCc1ccc(OCc2cccc(-c3ccccc3)c2C)c([N+](=O)[O-])c1 | 13.1 nM | 
Cc1c(COc2cc(OCc3cccc(C#N)c3)c(CN3CCCC[C@H]3C(=O)O)cc2[N+](=O)[O-])cccc1-c1ccccc1 | 5.65 nM | 

SMILES | IC50 [1] | also measured
Cc1c(COc2cc(OCc3cccc(C#N)c3)c(CN3CCC[C@H]3C(=O)O)cc2[N+](=O)[O-])cccc1-c1ccccc1 | 22.7 nM | 
Cc1c(COc2ccc(CNC(C)(CO)CO)cc2[N+](=O)[O-])cccc1-c1ccccc1 | 92.1 nM | 
Cc1c(COc2cc(OCc3cccc(C#N)c3)c(CN[C@@H](CO)C(=O)O)cc2[N+](=O)[O-])cccc1-c1ccccc1 | 13 nM | 
Cc1c(COc2ccc(CN3CCC[C@H]3C(=O)N[C@@H](C)CO)cc2[N+](=O)[O-])cccc1-c1ccccc1 | 61.8 nM | 
Cc1c(COc2ccc(CN3CCC[C@H]3C(=O)NCC(C)(C)O)cc2[N+](=O)[O-])cccc1-c1ccccc1 | 71.2 nM | 
Cc1c(COc2ccc(CN3CCCC[C@H]3C(=O)O)cc2[N+](=O)[O-])cccc1-c1ccccc1 | 8.78 nM | 
Cc1c(COc2cc(OCc3ccnc(C#N)c3)c(CN[C@H](C(=O)O)[C@@H](C)O)cc2[N+](=O)[O-])cccc1-c1ccccc1 | 10.2 nM | 
Cc1c(COc2ccc(CNC(CO)CO)cc2[N+](=O)[O-])cccc1-c1ccccc1 | 8.91 nM | 
Cc1c(COc2ccc(CN3CCCC[C@H]3C(=O)N3CCC[C@H]3C(=O)O)cc2[N+](=O)[O-])cccc1-c1ccccc1 | 14.8 nM | 
Cc1c(COc2ccc(CN3CCCC[C@H]3C(=O)N[C@@H](C)C(=O)O)cc2[N+](=O)[O-])cccc1-c1ccccc1 | 12.7 nM | 
Cc1c(COc2cc(OCc3cccc(C#N)c3)c(CN(C)CC(=O)O)cc2[N+](=O)[O-])cccc1-c1ccccc1 | 7.44 nM | 
C[C@@H](O)[C@H](NCc1ccc(OCc2cccc(-c3ccccc3)c2Br)c([N+](=O)[O-])c1)C(=O)O | 353 nM | 
Cc1c(COc2cc(OCc3cccnc3)c(CN[C@@H](CO)C(=O)O)cc2[N+](=O)[O-])cccc1-c1ccccc1 | 17.9 nM | 
Cc1c(COc2cc(OCc3cccc(C#N)c3)c(CN3CCCC[C@H]3C(=O)N3CCC[C@H]3C(=O)O)cc2[N+](=O)[O-])cccc1-c1ccccc1 | 4.31 nM | 
Cc1c(COc2ccc(CNCC(C)(C)O)cc2[N+](=O)[O-])cccc1-c1ccccc1 | 46.7 nM | 
Cc1c(COc2ccc(CN3CCC[C@H]3C(=O)NCCO)cc2[N+](=O)[O-])cccc1-c1ccccc1 | 55.7 nM | 
Cc1c(COc2ccc(CN3CCC[C@H]3C(=O)O)cc2[N+](=O)[O-])cccc1-c1ccccc1 | 45.2 nM | 
Cc1c(COc2ccc(CN3CCC[C@H]3C(=O)N[C@@H](CO)C(=O)O)cc2[N+](=O)[O-])cccc1-c1ccccc1 | 73.2 nM | 
Cc1c(COc2ccc(CN3CCC[C@H]3C(=O)N(C)CC(O)CO)cc2[N+](=O)[O-])cccc1-c1ccccc1 (stereo partly specified) | 9.98 nM | 
CC(=O)NCCNC(=O)[C@@H]1CCCN1Cc1ccc(OCc2cccc(-c3ccccc3)c2C)c([N+](=O)[O-])c1 | 56.4 nM | 
CC(=O)NCCNCc1cc([N+](=O)[O-])c(OCc2cccc(-c3ccccc3)c2C)cc1OCc1cccc(C#N)c1 | 8.11 nM | 
Cc1c(COc2ccc(CN[C@H](C(=O)O)[C@@H](C)O)cc2[N+](=O)[O-])cccc1-c1ccccc1 | 61 nM | 
CCC(CO)(CO)NC(=O)[C@@H]1CCCN1Cc1ccc(OCc2cccc(-c3ccccc3)c2C)c([N+](=O)[O-])c1 | 82.3 nM | 
Cc1c(COc2ccc(CNCCN(C)C)cc2[N+](=O)[O-])cccc1-c1ccccc1 | 37.7 nM | 
